Source: patent US20230356105A1, “TETRAAZADODECANE BASED CHELATING AGENTS FOR SEPARATION OF RARE EARTH ELEMENTS AND METHOD THEREFOR” (Ustav Organicke Chemie a Biochemie AV CR V.V.I., priority 2020, published 2023)
Where “and” joins values, the source holds several entries; their conditions need not be identical. Equal values may be shown once. Marks after values point to notes of the source that are not given here.

Experiments:
[1] = Use of additives to improve separation of Nd/Dy mixture by precipitation with L5 (Example 18); assay type: physicochemical; details: no additive (0 mM); 11 mM L5
Procedure, shortened: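 Mixtures held 5 mM NdCl3, 5 mM DyCl3 and 500 mM MOPS pH 7 with L5, plus additives at variable concentration adjusted to pH 7. Stirred 18 h in sealed cuvettes, then centrifuged; precipitate redissolved in 1 M HCl. Nd and Dy measured in supernatant and precipitate by ICP-OES.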

[2] = Separation of Gd/Lu mixture by repeated precipitation using L1 (Example 13); assay type: physicochemical; details: for Precipitate concentration [mM] Gd / Precipitate concentration [mM] Lu: dissolved to 200 μL
Protocol: Stock solutions were pipetted into round-bottom 2 mL Eppendorf tubes as follows: • 1. 10 μL 100 mM aqueous solution of GdCl3 • 2. 10 μL 100 mM aqueous solution of LuCl3 • 3. 20 μL 100 mM aqueous solution of compound • 4. 33.3 μL 3 M MOPS buffer pH=7. • 5. 127.6 μL water.
Nine identical reaction mixtures were prepared and split into three groups A, B, C. Each tube was equipped with one PTFE-coated magnetic stir bar and sealed, and the mixture was stirred on a magnetic stirrer for 24 hours at room temperature. The tubes were then centrifuged and the supernatants were carefully pipetted out and transferred to a new set of tubes. Precipitates from group A were dissolved by addition of 100 μL 1 M HCl at room temperature over the course of 30 mins and then diluted to 200 μL by the addition of 100 μL water. Concentrations of Gd and Lu in the supernatants and in re-dissolved precipitates from group A were determined by ICP-OES. Precipitates from groups B and C were further processed as follows: the precipitates were dissolved by addition of 100 μL 1 M HCl at room temperature at pH 0 over the course of 30 mins, and the pH was then adjusted to approximately 7 by the addition of 50 μL 2 M NaOH, and the overall volume adjusted to 200 μL by the addition of water. The prepared mixtures were subjected to a second round of precipitation and were stirred on a magnetic stirrer for 24 hours at room temperature. Then, the tubes were again centrifuged and supernatants were carefully pipetted out and transferred to a new set of tubes. Samples from group B were treated identically to the samples from group A previously, and the Gd and Lu content in the supernatants and precipitates was determined by ICP-OES. Precipitates from group C were subjected to a third cycle of precipitation and followed by Gd and Lu content determination analogously to the procedures described above.

| SMILES | Precipitate concentration [mM] Dy [1] | Precipitate concentration [mM] Nd [1] | Supernatant concentration [mM] Dy [1] | Supernatant concentration [mM] Nd [1] | Supernatant concentration [mM] Lu ([2]; group A, 1st precipitation) | Precipitate concentration [mM] Gd ([2]; group A, 1st precipitation) | Precipitate concentration [mM] Lu ([2]; group A, 1st precipitation) | Supernatant concentration [mM] Lu ([2]; group B, 2nd precipitation) | Precipitate concentration [mM] Gd ([2]; group B, 2nd precipitation) | Precipitate concentration [mM] Lu ([2]; group B, 2nd precipitation) | Supernatant concentration [mM] Lu ([2]; group C, 3rd precipitation) | Precipitate concentration [mM] Lu ([2]; group C, 3rd precipitation) |
| --- | --- | --- | --- | --- | --- | --- | --- | --- | --- | --- | --- | --- |
| O=C(O)CN1CCN(CC(=O)O)CCN(Cc2cccc3ccccc23)CCN(CC(=O)O)CC1 [L5, 2,2′,2″-(10-(naphthalene-1-ylmethyl)-1,4,7,10-tetraazacyklododekane-1,4,7-triyl)triacetic acid] | 4.60 mM | 4.98 mM | 0.37 mM | 0.07 mM | – | – | – | – | – | – | – | – |
| O=C(O)CN1CCN(CC(=O)O)CCN(Cc2ccccc2)CCN(CC(=O)O)CC1 [L1, 2,2′,2″-(10-benzyl-1,4,7,10-tetraazacyclododecane-1,4,7-triyl)triacetic Acid] | – | – | – | – | 4.28 mM and 4.35 mM and 4.12 mM and 4.36 mM | 4.24 mM and 4.38 mM and 4.22 mM and 4.12 mM | 0.99 mM and 1.08 mM and 0.98 mM and 0.90 mM | 0.80 mM and 0.83 mM and 0.77 mM | 3.33 mM and 3.40 mM and 3.70 mM and 3.48 mM | 0.23 mM and 0.21 mM and 0.22 mM (2×) | 0.24** mM and 0.17 mM and 0.16 mM and 0.19 mM | 0.05** mM and 0.07 mM and 0.06 mM |
